{
  "source": "paper PMC12057336",
  "about": "(Antimicrobial Agents and Chemotherapy, 2025)",
  "key": {"OCT2": {"system": "OCT2", "settings": "cited from earlier work"}, "MATE2-K": {"system": "MATE2-K", "settings": "cited from earlier work"}, "OCT3": {"system": "OCT3", "settings": "cited from earlier work"}, "MAT1": {"system": "MAT1", "design": "method as in PMID 27645247, PMID 26976869, PMID 27550354", "settings": "cited from earlier work"}, "OCT1": {"system": "OCT1", "settings": "cited from earlier work"}, "human OATP2B1": {"biological_target": "T1, human OATP2B1 (Homo sapiens, UniProt O94956)", "T1 sequence (O94956 1-709)": "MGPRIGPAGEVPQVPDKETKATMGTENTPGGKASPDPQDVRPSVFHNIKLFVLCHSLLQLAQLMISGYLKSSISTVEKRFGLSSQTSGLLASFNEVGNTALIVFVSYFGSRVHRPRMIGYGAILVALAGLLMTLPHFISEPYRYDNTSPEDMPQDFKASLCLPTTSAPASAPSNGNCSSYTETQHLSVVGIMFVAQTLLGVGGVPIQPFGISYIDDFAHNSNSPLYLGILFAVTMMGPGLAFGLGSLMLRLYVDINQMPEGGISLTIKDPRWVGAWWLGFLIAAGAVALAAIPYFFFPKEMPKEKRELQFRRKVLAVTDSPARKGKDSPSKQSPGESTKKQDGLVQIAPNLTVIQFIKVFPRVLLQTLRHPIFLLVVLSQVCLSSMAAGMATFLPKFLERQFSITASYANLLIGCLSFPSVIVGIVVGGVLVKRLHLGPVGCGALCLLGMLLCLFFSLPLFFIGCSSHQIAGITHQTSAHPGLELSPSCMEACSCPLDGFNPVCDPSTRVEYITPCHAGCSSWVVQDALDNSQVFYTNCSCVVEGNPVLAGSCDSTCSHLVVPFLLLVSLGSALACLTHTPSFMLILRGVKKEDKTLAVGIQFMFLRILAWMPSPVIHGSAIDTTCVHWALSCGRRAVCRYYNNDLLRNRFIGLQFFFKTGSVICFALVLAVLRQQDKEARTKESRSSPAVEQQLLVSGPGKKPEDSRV", "experiment": "Uptake in OATP2B1-transfected HEK293 cells", "settings": "5 µM; 10 min; 37°C; vs mock cells", "protocol": "OATP1B1-, OATP1B3-, OATP2B1-, NTCP-, OAT1-, and OAT3-transfected HEK293 cells were cultured in DMEM supplemented with 10% FBS, 100 U/mL penicillin-streptomycin at 37°C with 95% relative humidity atmosphere containing 5% CO2. All cells were seeded in 24-well plates at a density of 4 × 10^5 cells/well and cultured for 1–2 days until they reached 80%–90% confluence. Prior to the initiation of uptake studies, the cells were washed twice with HBSS buffer at 37°C. Membrane vesicles were stored at −80°C and thawed at 37°C prior to the initiation of the studies.\nAll uptake tests were performed in triplicates. The activities of transporter-transfected HEK293 cells were evaluated using relevant positive substrates and inhibitors. E17G (5 µM, OATP1B1 and OATP1B3), ES (2 µM, OATP2B1), ES (5 µM, OAT3), TCA (10 µM, NTCP), and PAH (20 µM, OAT1) were used as substrates of the transporters. The inhibitors for each transporter were rifampicin (200 µM, OATP1B1 and OATP1B3), erlotinib (10 µM, OATP2B1), CsA (20 µM, NTCP), and probenecid (200 µM, OAT1 and OAT3).\nThe cells were washed three times with ice-cold HBSS buffer. […] The total protein concentration was measured using a BCA Protein Assay Kit. The uptake rates of HEK293-OATP1B1, HEK293-OATP1B3, HEK293-OATP2B1, HEK293-NTCP, HEK293-OAT1, HEK293-OAT3, and mock cells were calculated. […]"}},
  "data": [
    {"compound": "CC(=O)NC[C@H]1CN(c2ccc(N3CCOCC3)c(F)c2)C(=O)O1", "note": "[Linezolid]", "values": [
      {"measurement": "substrate for OCT2", "setting": "OCT2", "result": "not a substrate"},
      {"measurement": "inhibitor of MATE2-K", "setting": "MATE2-K", "result": "not an inhibitor"},
      {"measurement": "substrate for OCT3", "setting": "OCT3", "result": "not a substrate"},
      {"measurement": "inhibitor of MAT1", "setting": "MAT1", "result": "not an inhibitor"},
      {"measurement": "inhibitor of OCT1", "setting": "OCT1", "result": "not an inhibitor"},
      {"measurement": "substrate for OATP2B1", "setting": "human OATP2B1", "result": "not a substrate"}
    ]}
  ]
}
